Measured values: ChEMBL document CHEMBL1126498, “Heterocyclic inhibitors of human leukocyte elastase: 3-Hydroxypyridazopyrimidine, 3-hydroxypyridopyrimidine and 3-hydroxyquinazoline-2,4-1H,3H0dione derivatives” (Bioorg Med Chem Lett, 1993)
The source made the active and inactive calls. The rule behind the calls is not given here.

How the values were obtained:
[1] = target: T1, Neutrophil elastase (Homo sapiens) (UniProt P08246); test: The bimolecular rate constant Kobs/[I] to inhibit human leukocyte elastase (HLE) was determined
T1 sequence (whole entry): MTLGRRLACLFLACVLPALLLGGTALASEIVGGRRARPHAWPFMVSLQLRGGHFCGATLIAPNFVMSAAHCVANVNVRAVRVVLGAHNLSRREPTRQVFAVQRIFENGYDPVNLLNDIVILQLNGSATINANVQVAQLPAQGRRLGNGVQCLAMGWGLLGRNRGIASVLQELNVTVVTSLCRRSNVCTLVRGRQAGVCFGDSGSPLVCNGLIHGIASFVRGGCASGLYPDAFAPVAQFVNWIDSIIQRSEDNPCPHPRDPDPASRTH

[2] = target: T1, Neutrophil elastase (Homo sapiens); test: The bimolecular rate constant Kobs/[I] to inhibit human leukocyte elastase (HLE) was determined; IA denotes inactive

Compound	K obs / 1 [1] [M⁻¹ s⁻¹]	K obs / 1 [2]
CCCCS(=O)(=O)On1c(=O)[nH]c2cccnc2c1=O	64	
CS(=O)(=O)On1c(=O)[nH]c2nccnc2c1=O		inactive
CCCCS(=O)(=O)On1c(=O)[nH]c2ccncc2c1=O	58	
CCCCS(=O)(=O)On1c(=O)[nH]c2ccccc2c1=O	180	
O=c1[nH]c2ccccc2c(=O)n1OS(=O)(=O)c1ccccc1		inactive
CC(C)CS(=O)(=O)On1c(=O)[nH]c2ccccc2c1=O	170	
CCCCS(=O)(=O)On1c(=O)[nH]c2nccnc2c1=O	20	
CCCCCS(=O)(=O)On1c(=O)[nH]c2ccccc2c1=O	40	
CS(=O)(=O)On1c(=O)[nH]c2ccccc2c1=O		inactive
CCCCOP(=O)(OCCCC)On1c(=O)[nH]c2ccccc2c1=O	3870	
CCCOP(=O)(OCCC)On1c(=O)[nH]c2ccccc2c1=O	3160	
O=c1[nH]c2nccnc2c(=O)n1OS(=O)(=O)c1ccccc1		inactive
